Here are results for 2 compounds from patent US7153851B2, “10-(3-cyclopropylaminomethyl-1-pyrrolidinyl)pyridobenzoxazinecarboxylic acid derivative effective against resistant bacterium” (Kyorin Pharmaceutical Co., Ltd., priority 2002, dated 2006).

Test in all cases: In vitro antibacterial activity (MIC), agar dilution method according to NCCLS
Common to all, as to type: cell-based
In general terms: Agar dilution tests growth on a series of plates holding different concentrations.

The test system of one experiment is S. aureus Smith. The following applies: Muller-Hinton agar medium. The method, then:
(§1) The in vitro antibacterial activity (as measured by the minimum inhibitory concentration (MIC)) was determined for each of the compounds of the present invention by the agar dilution method according to NCCLS (National Committee for Clinical Laboratory Standard (1997), Methods for Dilution Antibacterial Susceptibility Tests for Bacteria that grow Aerobically-Forth Edition: Approved Standard m7-A4. NCCLS, Villanova, Pa.), which involved the use of Muller-Hinton agar medium.

The subject of experiment [1] is S. aureus MR5867 (methicillin-resistant S. aureus). Conditions: Muller-Hinton agar medium. The method, then: as §1
Experiment [2] concerns S. aureus MS16401 (quinolone-resistant S. aureus). The following applies: Muller-Hinton agar medium. The method, then:
as §1

The test system of another experiment is S. pneumoniae Type III. Conditions: Muller-Hinton agar medium containing 5% defibrinated equine blood.
In a further experiment the test system is E. faecalis IID682. Also on record: unit not given here. The following applies: Muller-Hinton agar medium containing 5% defibrinated equine blood.

SMILES strings stand for the structures. In brackets after ≈: the same amount, converted by molar mass.

As to `O=C(O)c1cn2c3c(c(N4C[C@H](CNC5CC5)[C@H](F)C4)c(F)cc3c1=O)OC[C@@H]2CF` [Example 20, (3R)-10-[(3S,4S)-3-cyclopropylaminomethyl-4-fluoro-1-pyrrolidinyl]-9-fluoro-3-fluoromethyl-2,3-dihydro-7-oxo-7H-pyrido[1,2,3-d.e][1,4]benzoxazine-6-carboxylic acid], the MIC against S. aureus Smith turned out to be 0.008; in experiment [1], 0.016; in experiment [2], 63 µg/mL (≈ 144 µM); in the experiment with S. pneumoniae Type III it was 0.016; in the experiment on E. faecalis IID682, 0.063.

Turning to `C[C@H]1COc2c(N3C[C@H](NC4CC4)[C@@H](F)C3)c(F)cc3c(=O)c(C(=O)O)cn1c23` [Example 21, (3S)-10-[(3S,4S)-3-cyclopropylamino-4-fluoro-1-pyrrolidinyl]-9-fluoro-2,3-dihydro-3-methyl-7-oxo-7H-pyrido[1,2,3-d.e][1,4]benzoxazine-6-carboxylic acid], the MIC worked out at 0.016 against S. aureus Smith; 0.016 in experiment [1]; 31 µg/mL (≈ 76.5 µM) in experiment [2]; 0.016 against S. pneumoniae Type III; 0.063 against E. faecalis IID682.
